From PMC8048981, “Cys–Cys and Cys–Lys Stapling of Unprotected Peptides Enabled by Hypervalent Iodine Reagents” (Angewandte Chemie (International Ed. in English), 2021)
Like-named read-outs stand apart in the source and are kept apart here.

Tests used:
[1] = the molecule shown is the open-chain precursor, scale: % relative absorbance at 210 nm vs linear peptide standard
[2] = Two-component Cys-Lys stapling with EBX-PFP ester reagents 9a/9b (1.1 equiv), DIPEA (2.5 equiv), preparative RP-HPLC; conditions: the molecule shown is the open-chain precursor, DMF, 1.0 mM, 37.0 °C
[3] = Two-component Cys-Lys stapling: Cys S-alkynylation by EBX-pentafluorophenyl ester reagents 9a-9d (1.1 equiv), then intramolecular Lys aminolysis of the PFP ester; DIPEA (2.5 equiv); conditions: the molecule shown is the open-chain precursor, DMF, 1.0 mM, 37.0 °C, scale: % relative absorbance at 210 nm vs linear peptide standard
[4] = Two-component Cys-Cys stapling with bis-hypervalent iodine reagents 8c-8e (3.0 equiv), DIPEA (2.5 equiv), overnight, preparative RP-HPLC; conditions: the molecule shown is the open-chain precursor, DMF, 2.0 mM, 37.0 °C
[5] = 22-membered ring, DMF, 1.0 mM, 37.0 °C, 4.0 h
[6] = 24-membered ring, DMF, 1.0 mM, 37.0 °C, 4.0 h
[7] = 33-membered ring, DMF, 1.0 mM, 37.0 °C, 4.0 h

CSCC[C@H](NC(=O)[C@H](CC(N)=O)NC(=O)[C@H](CCCCN)NC(=O)[C@H](Cc1ccc(O)cc1)NC(=O)[C@H](CS)NC(=O)[C@H](CCC(=O)O)NC(=O)[C@H](Cc1c[nH]cn1)NC(=O)[C@H](Cc1c[nH]c2ccccc12)NC(=O)[C@H](CSC#C[Si](C#CI1OC(C(F)(F)F)(C(F)(F)F)c2ccccc21)(C(C)C)C(C)C)NC(=O)[C@H](CCCNC(=N)N)NC(=O)[C@H](CCC(=O)O)NC(=O)[C@@H](N)CO)C(N)=O
ring closure, conversion by HPLC [1, 5]: 79

CSCC[C@H](NC(=O)[C@H](CC(N)=O)NC(=O)[C@H](CCCCN)NC(=O)[C@H](Cc1ccc(O)cc1)NC(=O)[C@H](CS)NC(=O)[C@H](CCC(=O)O)NC(=O)[C@H](Cc1c[nH]cn1)NC(=O)[C@H](Cc1c[nH]c2ccccc12)NC(=O)[C@H](CSC#C[Si](O[Si](C#CI1OC(C(F)(F)F)(C(F)(F)F)c2ccccc21)(C(C)C)C(C)C)(C(C)C)C(C)C)NC(=O)[C@H](CCCNC(=N)N)NC(=O)[C@H](CCC(=O)O)NC(=O)[C@@H](N)CO)C(N)=O
ring closure, conversion by HPLC [1, 6]: 15

5(6)-FAM-QSQQTFC(S-C≡C-C6H4-4-CO-OPfp)NLWRLLKQN-NH2
ring closure, isolated yield (% isolated yield) ([2]; 36-membered ring): 76

C[C@H](NC(=O)[C@H](CC(=O)O)NC(=O)[C@H](Cc1c[nH]cn1)NC(=O)[C@H](CCCCN)NC(=O)[C@H](Cc1ccc(O)cc1)NC(=O)[C@H](Cc1ccccc1)NC(=O)[C@H](CCC(N)=O)NC(=O)[C@H](CO)NC(=O)[C@@H](N)CCCNC(=N)N)C(=O)NCC(=O)N[C@@H](CSC#Cc1cccc(C(=O)Oc2c(F)c(F)c(F)c(F)c2F)c1)C(=O)NCC(N)=O [H-RSQFYKHDAGC(S-C≡C-C6H4-3-CO-OPfp)G-NH2]
ring closure, conversion by HPLC ([3]; 29-membered ring, 0.5 h): 22

C[C@H](NC(=O)[C@H](CC(=O)O)NC(=O)[C@H](Cc1c[nH]cn1)NC(=O)[C@H](CCCCN)NC(=O)[C@H](Cc1ccc(O)cc1)NC(=O)[C@H](Cc1ccccc1)NC(=O)[C@H](CCC(N)=O)NC(=O)[C@H](CO)NC(=O)[C@@H](N)CCCNC(=N)N)C(=O)NCC(=O)N[C@@H](CSC#Cc1ccc(C(=O)Oc2c(F)c(F)c(F)c(F)c2F)cc1)C(=O)NCC(N)=O [H-RSQFYKHDAGC(S-C≡C-C6H4-4-CO-OPfp)G-NH2]
ring closure, conversion by HPLC ([3]; 30-membered ring, 0.5 h): 54 | ring closure, conversion by HPLC ([3]; 41-membered ring, 0.5 h): 18

CSCC[C@H](NC(=O)[C@H](CC(N)=O)NC(=O)[C@H](Cc1ccc(O)cc1)NC(=O)[C@H](CCCCN)NC(=O)[C@H](CCC(=O)O)NC(=O)[C@H](Cc1c[nH]cn1)NC(=O)[C@H](Cc1c[nH]c2ccccc12)NC(=O)[C@H](CSC#Cc1cccc(C(=O)Oc2c(F)c(F)c(F)c(F)c2F)c1)NC(=O)[C@H](CCCNC(=N)N)NC(=O)[C@H](CCC(=O)O)NC(=O)[C@@H](N)CO)C(N)=O [H-SERC(S-C≡C-C6H4-3-CO-OPfp)WHEKYNM-NH2]
ring closure, conversion by HPLC ([3]; 26-membered ring, 0.5 h): 20

CSCC[C@H](NC(=O)[C@H](CC(N)=O)NC(=O)[C@H](Cc1ccc(O)cc1)NC(=O)[C@H](CCCCN)NC(=O)[C@H](CCC(=O)O)NC(=O)[C@H](Cc1c[nH]cn1)NC(=O)[C@H](Cc1c[nH]c2ccccc12)NC(=O)[C@H](CSC#Cc1ccc(C(=O)Oc2c(F)c(F)c(F)c(F)c2F)cc1)NC(=O)[C@H](CCCNC(=N)N)NC(=O)[C@H](CCC(=O)O)NC(=O)[C@@H](N)CO)C(N)=O [H-SERC(S-C≡C-C6H4-4-CO-OPfp)WHEKYNM-NH2]
ring closure, conversion by HPLC ([3]; 27-membered ring, 0.5 h): 63

Ac-ENPEC(S-C≡C-C6H4-2-CO-OPfp)ILDKHVQRVM-NH2
ring closure, conversion by HPLC ([3]; 25-membered ring, 0.5 h): 101

Ac-ENPEC(S-C≡C-C6H4-3-CO-OPfp)ILDKHVQRVM-NH2
ring closure, isolated yield (% isolated yield) ([2]; 26-membered ring): 7 | ring closure, conversion by HPLC ([3]; 26-membered ring, 0.5 h): 34

Ac-ENPEC(S-C≡C-C6H4-3-C≡C-I[bis-CF3 benziodoxole])ILDCHVQRVM-NH2
ring closure, conversion by HPLC [1, 6]: 13

Ac-ENPEC(S-C≡C-C6H4-4-CO-OPfp)ILDKHVQRVM-NH2
ring closure, isolated yield (% isolated yield) ([2]; 27-membered ring): 52 | ring closure, conversion by HPLC ([3]; 27-membered ring, 0.5 h): 62

Ac-ENPEC(S-C≡C-C6H4-4-C≡C-I[bis-CF3 benziodoxole])ILDCHVQRVM-NH2
ring closure, conversion by HPLC ([1]; 25-membered ring): 27

Ac-ENPEC(S-C≡C-Si(cHex)2-C≡C-I[bis-CF3 benziodoxole])ILDCHVQRVM-NH2
ring closure, conversion by HPLC [1, 5]: 89

Ac-ENPEC(S-C≡C-Si(iPr)2-C≡C-I[bis-CF3 benziodoxole])ILDCHVQRVM-NH2
ring closure, isolated yield (% isolated yield) ([4]; 22-membered ring): 46 | ring closure, conversion by HPLC [1, 5]: 98

Ac-ENPEC(S-C≡C-Si(iPr)2-O-Si(iPr)2-C≡C-I[bis-CF3 benziodoxole])ILDCHVQRVM-NH2
ring closure, isolated yield (% isolated yield) ([4]; 24-membered ring): 29 | ring closure, conversion by HPLC [1, 6]: 51

Ac-QSQQTFC(S-C≡C-C6H4-2-CO-OPfp)NLWRLLKQN-NH2
ring closure, conversion by HPLC ([3]; 34-membered ring, 0.5 h): 123

Ac-QSQQTFC(S-C≡C-C6H4-3-CO-OPfp)NLWRLLKQN-NH2
ring closure, isolated yield (% isolated yield) ([2]; 35-membered ring): 55 | ring closure, conversion by HPLC ([3]; 35-membered ring, 0.5 h): 110

Ac-QSQQTFC(S-C≡C-C6H4-3-C≡C-I[bis-CF3 benziodoxole])NLWRLLCQN-NH2
ring closure, conversion by HPLC [1, 7]: 13

Ac-QSQQTFC(S-C≡C-C6H4-4-CO-OPfp)NLWRLLKQN-NH2
ring closure, isolated yield (% isolated yield) ([2]; 36-membered ring): 87 | ring closure, conversion by HPLC ([3]; 36-membered ring, 0.5 h): 117

Ac-QSQQTFC(S-C≡C-C6H4-4-C≡C-I[bis-CF3 benziodoxole])NLWRLLCQN-NH2
ring closure, conversion by HPLC ([1]; 34-membered ring, DMF, 1.0 mM, 37.0 °C, 4.0 h): 46

Ac-QSQQTFC(S-C≡C-Si(cHex)2-C≡C-I[bis-CF3 benziodoxole])NLWRLLCQN-NH2
ring closure, isolated yield (% isolated yield) ([4]; 31-membered ring): 22

Ac-QSQQTFC(S-C≡C-Si(iPr)2-C≡C-I[bis-CF3 benziodoxole])NLWRLLCQN-NH2
ring closure, isolated yield (% isolated yield) ([4]; 31-membered ring): 13 | ring closure, conversion by HPLC ([1]; 31-membered ring, DMF, 1.0 mM, 37.0 °C, 4.0 h): 30

Ac-QSQQTFC(S-C≡C-Si(iPr)2-O-Si(iPr)2-C≡C-I[bis-CF3 benziodoxole])NLWRLLCQN-NH2
ring closure, isolated yield (% isolated yield) ([4]; 33-membered ring): 17 | ring closure, conversion by HPLC [1, 7]: 30

Ac-YGGEAAREAC(S-C≡C-C6H3-3,5-(CO-OPfp)2)AREKAARE-NH2
ring closure, conversion by HPLC ([3]; 26-membered ring, 0.25 h): 70

Ac-YGGEAAREAC(S-C≡C-C6H4-2-CO-OPfp)AREKAARE-NH2
ring closure, conversion by HPLC ([3]; 25-membered ring, 0.5 h): 118

Ac-YGGEAAREAC(S-C≡C-C6H4-3-CO-OPfp)AREKAARE-NH2
ring closure, isolated yield (% isolated yield) ([2]; 26-membered ring): 44 | ring closure, conversion by HPLC ([3]; 26-membered ring, 0.5 h): 77

Ac-YGGEAAREAC(S-C≡C-C6H4-4-CO-OPfp)AREKAARE-NH2
ring closure, isolated yield (% isolated yield) ([2]; 27-membered ring): 65 | ring closure, conversion by HPLC ([3]; 27-membered ring, 0.5 h): 114

Ac-YGGEAAREAC(S-C≡C-C6H4-4-CO-OPfp)AREKAAREK-NH2
ring closure, conversion by HPLC ([3]; 27-membered ring, 0.5 h): 95

Ac-YGGEAAREAC(S-C≡C-Si(cHex)2-C≡C-I[bis-CF3 benziodoxole])ARECAARE-NH2
ring closure, conversion by HPLC ([1]; 22-membered ring): 69

Ac-YGGEAAREAC(S-C≡C-Si(iPr)2-C≡C-I[bis-CF3 benziodoxole])ARECAARE-NH2
ring closure, isolated yield (% isolated yield) ([4]; 22-membered ring): 48 | ring closure, conversion by HPLC ([1]; 22-membered ring): 72

Ac-YGGEAAREAC(S-C≡C-Si(iPr)2-O-Si(iPr)2-C≡C-I[bis-CF3 benziodoxole])ARECAARE-NH2
ring closure, isolated yield (% isolated yield) ([4]; 24-membered ring): 19 | ring closure, conversion by HPLC ([1]; 24-membered ring): 9

Ac-YGGEAARK(ivDde)AC(S-C≡C-C6H4-3-CO-OPfp)AREKAARE-NH2
ring closure, conversion by HPLC ([3]; 26-membered ring, 0.5 h): 72

Ac-YGGEAARK(ivDde)AC(S-C≡C-C6H4-4-CO-OPfp)AREKAARE-NH2
ring closure, conversion by HPLC ([3]; 27-membered ring, 0.5 h): 117

Ac-YGGEAARKAC(S-C≡C-C6H4-3-CO-OPfp)AREKAARE-NH2
ring closure, conversion by HPLC ([3]; 26-membered ring, 0.5 h): 74

Ac-YGGEAARKAC(S-C≡C-C6H4-4-CO-OPfp)AREKAARE-NH2
ring closure, conversion by HPLC ([3]; 27-membered ring, 0.5 h): 92

Ac-YGGEKAREAC(S-C≡C-C6H4-4-CO-OPfp)AREKAARE-NH2
ring closure, conversion by HPLC ([3]; 27-membered ring, 0.5 h): 91
